{"source": "patent US5462956A", "about": "“Epibatidine and derivatives, compositions and methods of treating pain” (priority 1994, dated 1995)", "key": {"[1]": {"system": "NIH mice", "test": "hot plate analgesia assay (Eddy and Leimbach), with and without naloxone", "type": "in vivo, mouse", "conditions": "for ED50 Dose for Hot Plate Analgesia: mice, sc, hot plate 55° C., reaction times over 60 min", "procedure": "107, 385-393, 1953]. NIH mice were dropped onto a hot plate maintained at 55° C. and the reaction time was determined. The criterion for a reaction was kicking the hind leg, attempting to jump out, or shaking a foot and turning and licking it. Reaction time for each mouse was determined at least twice before and 5, 10, 20, 30, 45 and 60 min after administration of compound."}, "[2]": {"system": "mice", "procedure": "The Straub-tail reaction was assayed by a standard procedure [Aceto, M. D., et. al., Brit. J. Pharmacol. 36, 225-239, 1969]."}, "[3]": {"system": "dihydromorphine binding sites", "test": "binding to dihydromorphine binding sites in rodent brain membranes (background statement)"}, "[4]": {"target": "opioid-binding sites (Cavia porcellus, UniProt A0ACM8Q262)", "sequence (A0ACM8Q262 1-400)": "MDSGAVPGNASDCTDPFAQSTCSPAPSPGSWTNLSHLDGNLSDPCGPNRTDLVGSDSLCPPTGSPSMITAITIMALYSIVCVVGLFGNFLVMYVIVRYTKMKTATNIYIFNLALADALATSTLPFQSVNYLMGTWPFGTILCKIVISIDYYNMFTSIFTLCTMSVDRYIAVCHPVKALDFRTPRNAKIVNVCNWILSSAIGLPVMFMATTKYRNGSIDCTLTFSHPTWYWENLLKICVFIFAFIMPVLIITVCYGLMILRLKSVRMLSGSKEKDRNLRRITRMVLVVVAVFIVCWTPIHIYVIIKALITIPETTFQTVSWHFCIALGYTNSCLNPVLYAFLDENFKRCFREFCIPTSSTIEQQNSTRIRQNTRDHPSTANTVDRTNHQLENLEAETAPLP", "conditions": "1 nM [3H]dihydromorphine, guinea pig cerebral tissue", "procedure": "Briefly, cerebral tissue from brains of male Hartley guinea pigs was homogenized in 10 volumes of ice-cold 50 mM Tris-HCl buffer (pH 7.4) for 20 sec. in a Polytron homogenizer at 3000 rpm. After centrifugation at 18,000 G for 10 min., the pellet was reconstructed to the same volume in Tris buffer. […] Samples were chilled to 0° and filtered through glass fiber filters, followed by two washes with 5 ml of ice cold Tris buffer. Radioactivity retained on the filter was determined with a liquid scintillation counter. Nonspecific binding of [^3 H]dihydromorphine was determined in the presence of 100 nM naloxone."}, "[5]": {"test": "Nilsen assay of analgetic activity", "conditions": "in vivo"}}}
{"smiles": "Clc1ccc(C2CC3CCC2N3)cn1", "note": "(stereo not drawn) [Epibatidine]", "values": [{"measurement": "ED50 Dose for Hot Plate Analgesia", "setting": "[1]", "result": 0.005, "unit": "mg/kg"}, {"measurement": "antagonism of the analgesia by the opioid antagonist naloxone (background statement)", "setting": "[1]; naloxone", "result": "not antagonized"}, {"measurement": "Effect of Naloxone (on analgesia)", "setting": "[1]; naloxone 5 mg/kg sc", "result": "No effect"}, {"measurement": "potency relative to morphine in a standard analgetic test", "setting": "[1]; subcutaneously to mice", "result": "two-hundred fold more potent than morphine"}, {"measurement": "Straub-tail reaction elicited by isolated alkaloid", "setting": "[2]; column fractions 108-111, mice", "result": "elicited the Straub-tail reaction in mice"}, {"measurement": "Straub-tail response", "setting": "[2]; mice, at higher doses for epibatidine (background statement)", "result": "marked Straub-tail response"}, {"measurement": "dose that elicited a comparable Straub-tail reaction", "setting": "[2]; mouse, in vivo", "result": 0.02, "unit": "mg/kg"}, {"measurement": "effect of naloxone on the Straub-tail reaction", "setting": "[2]; mouse, in vivo", "result": "only slightly reduced the Straub-tail reaction"}, {"measurement": "blockade of the Straub-tail response by naloxone (background statement)", "setting": "[2]; opioid-antagonist naloxone", "result": "not blocked"}, {"measurement": "affinity for dihydromorphine binding sites", "setting": "[3]", "result": "very low affinity"}, {"measurement": "activity at opioid-binding sites in words", "setting": "[4]", "result": "nearly inactive"}, {"measurement": "IC50", "setting": "[4]; 30 min, 25°, pH 7.4", "result": 8.8, "unit": "µM"}, {"measurement": "Analgetic activity in the Nilsen assay", "setting": "[5]", "result": "Analgetic activity also was apparent"}]}
{"smiles": "CN1CC[C@]23c4c5ccc(O)c4O[C@H]2[C@@H](O)C=C[C@H]3[C@H]1C5", "note": "[Morphine, reference compound]", "values": [{"measurement": "ED50 Dose for Hot Plate Analgesia", "setting": "[1]", "result": 1, "unit": "mg/kg"}, {"measurement": "dose required for a greater than 45° arch of tail (Straub-tail reaction)", "setting": "[2]; mouse, in vivo, sc", "result": 10, "unit": "mg/kg"}]}
